Assay results reported in paper PMC9492458, “Development and structure–activity relationships of tanshinones as selective 11β-hydroxysteroid dehydrogenase 1 inhibitors” (Natural Products and Bioprospecting, 2022).
Like-named read-outs stand apart in the source and are kept apart here.

Columns and labels:
[1] = target: T1, mouse 11β-HSD2 (Mus musculus, UniProt P51661); experiment: scintillation proximity assay (SPA), microsomes of HEK-293 cells transfected with mouse 11β-HSD2
T1 sequence (P51661 1-386): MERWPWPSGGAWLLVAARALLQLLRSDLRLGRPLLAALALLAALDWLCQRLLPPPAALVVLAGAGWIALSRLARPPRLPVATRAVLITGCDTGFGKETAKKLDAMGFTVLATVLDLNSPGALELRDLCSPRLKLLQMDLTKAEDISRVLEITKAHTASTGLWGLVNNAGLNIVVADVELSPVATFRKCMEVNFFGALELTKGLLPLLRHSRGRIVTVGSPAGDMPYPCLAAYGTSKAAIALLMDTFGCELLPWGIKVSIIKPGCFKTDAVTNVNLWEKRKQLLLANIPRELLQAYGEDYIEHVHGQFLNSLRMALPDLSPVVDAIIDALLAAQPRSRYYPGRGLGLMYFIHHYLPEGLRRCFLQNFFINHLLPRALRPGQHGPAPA
Experimental: (§1) With diverse tanshinones in hand, inhibition of human and mouse 11β-HSD1 enzymatic potency was measured by scintillation proximity assay (SPA) using microsomes containing 11β-HSD1 [46, 47]. Results are reported as the average of two or three independent experiments at each concentration.
(§2) The SPA was used to screen for inhibitors of 11β-HSDs [48], with the microsome fractions prepared from the HEK-293 cells stably transfected with either human or mouse 11β-HSD1 or 11β-HSD2 as the enzyme source. […] Reactions were initiated by the addition of 11β-HSD1 or 11β-HSD2, enzyme. […] The plates were incubated under plastic film on an orbital shaker for 120 min at room temperature before counting. The amount of [^3H]-cortisol generated in 11β-HSD1 enzyme reaction or remaining from the 11β-HSD2 enzyme reaction was captured by the beads and determined in a microplate liquid scintillation counter. The % inhibition was calculated relative to a non-inhibited control. Data were obtained from two or three independent experiments. IC50 values were calculated from concentration–response curves by a non-linear regression analysis using Prism Version 6.

[2] = target: T2, 11β-HSD1 in liver (Mus musculus, UniProt P50172); experiment: Measurement of 11β-HSD1 activity in liver of ob/ob mice; type: in vivo; settings: single oral dose 300 mg/kg
T2 construct: from tissue
T2 sequence (P50172 whole entry): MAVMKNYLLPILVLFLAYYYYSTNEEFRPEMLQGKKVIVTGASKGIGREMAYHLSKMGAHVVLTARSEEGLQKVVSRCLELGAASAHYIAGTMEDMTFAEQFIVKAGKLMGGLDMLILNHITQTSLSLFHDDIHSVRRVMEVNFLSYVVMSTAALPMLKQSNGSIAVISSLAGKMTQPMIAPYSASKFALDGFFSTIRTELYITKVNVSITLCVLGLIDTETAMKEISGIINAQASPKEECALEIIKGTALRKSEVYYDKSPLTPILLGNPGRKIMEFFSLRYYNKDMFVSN
Experimental: After single oral administration of 1, 17 or 30 at dose of 300 mg/kg to ob/ob mice, the enzymatic activity of 11β-HSD1 in liver was measured.
B6.V-Lepob/Lepob mice (Jackson Laboratory, Bar Harbor, ME, USA) were bred at the Shanghai Institute of Materia Medica, Chinese Academy of Sciences. All mice were housed in a specific, pathogen-free class laboratory and were maintained at a controlled room temperature (22–24 °C) under a 12 h light–dark cycle with free access to water and food. The animal experiments were conducted in accordance with the guides by the Institutional Animal Care and Utilization Committee (IACUC) of Shanghai Institute of Materia Medica (SIMM), Chinese Academy of Sciences (CAS). The protocol was approved by the IACUC, SIMM, CAS with accreditation number of 2017-08-LY-67. All animal experiment complied with the ARRIVE guidelines for the care and use of laboratory animals.
Ob/ob mice (10 weeks’ old) were given a single dose of 1, 17, 30 (300 mg/kg) or vehicle (0.5% carboxymethyl cellulose, CMC), p.o. After 4 h and 8 h, animals were euthanized with an i.p injection of sodium pentobarbital (60 mg/kg) and the livers were isolated and stored as described above. The liver tissue was homogenized (1 mg/mL) in cold homogenization buffer, and […] of liver homogenates was used to analyze the 11β-HSD1 activity by SPA, as previously described.

[3] = target: T3, human 11β-HSD2 (Homo sapiens, UniProt P80365); experiment: scintillation proximity assay (SPA), microsomes of HEK-293 cells transfected with human 11β-HSD2
T3 sequence (P80365 1-405): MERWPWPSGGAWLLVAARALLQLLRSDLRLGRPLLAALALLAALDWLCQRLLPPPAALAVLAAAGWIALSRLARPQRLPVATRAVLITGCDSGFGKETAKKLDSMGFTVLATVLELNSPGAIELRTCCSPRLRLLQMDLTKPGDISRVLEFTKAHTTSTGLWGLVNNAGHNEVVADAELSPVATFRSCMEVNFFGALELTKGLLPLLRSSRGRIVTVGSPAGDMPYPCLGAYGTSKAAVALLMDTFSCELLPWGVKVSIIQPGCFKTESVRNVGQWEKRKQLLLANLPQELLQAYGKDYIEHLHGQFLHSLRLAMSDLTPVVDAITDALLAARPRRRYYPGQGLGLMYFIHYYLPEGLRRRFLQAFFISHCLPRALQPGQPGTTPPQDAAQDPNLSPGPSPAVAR
Experimental: as §1, §2

[4] = target: T4, 11β-HSD1 in 3T3-L1 adipocytes (Mus musculus, UniProt P50172); experiment: 11β-HSD1 activity assay in 3T3-L1 adipocytes; type: cell-based; settings: for IC50: 1 h incubation, averages of three determinations, read-out: IC50, cellular assay on 3T3-L1 adipocyte against 11β-HSD1; for Emax: inhibition relative to MK544 10 μM, read-out: Max effect
T4 construct: endogenous in cells; host or cells: 3T3-L1 adipocytes
T4 sequence (P50172 whole entry): as the sequence (P50172 whole entry) above
Experimental: 11β-HSD1 enzyme inhibition in adipose tissue is believed to be important for achieving efficacy in vivo [11, 12]. Derivatives with potent enzymatic potency and excellent selectivity profiles (13, 14, 17, 28a, 28b and 30) were also evaluated their 11β-HSD1 inhibition in 3T3-L1 adipocyte.
The reductase activity of 11β-HSD1 in intact 3T3-L1 adipocytes was determined by measuring the rate of conversion of cortisone to cortisol. To explore the effect of compounds on 11β-HSD1 reductase activity, 3T3-L1 adipocytes were incubated for 1 h at 37 °C in serum-free DMEM containing 6.25 nmol/L [1,2-(N)^3H]-cortisone and different concentrations of compounds, according to experimental design. 0.1% DMSO was set as the vehicle control and MK544 was set as the positive control. At the end of the incubation, 80 μL of medium was pipetted into a transparent bottom 96-well plate, and 35 μL of SuperBlock Blocking Buffer containing 10 g/L of protein A-coated yttrium silicate beads and 3 mg/L of anti-cortisol antibodies was added. The mixtures were shaken in the dark for 2 h and then used for liquid scintillation readings. The inhibition effect was calculated by the following equation: Inhibition%=Data(compound)-Data(DMSO Vehicle)/Data(MK54410μM)-Data(DMSO Vehicle)×100%.

[5] = target: human 11β-HSD1 (Homo sapiens, UniProt P28845); experiment: scintillation proximity assay (SPA), microsomes of HEK-293 cells transfected with human 11β-HSD1; settings: for Human SI (selectivity index): SI = IC50(HSD2)/IC50(HSD1); for inhibition at 1 µM: read-out: Inhibitory ratio h-HSD1, at 1.0 μM, averages of three determinations
Chain of human 11β-HSD1 (P28845 whole entry): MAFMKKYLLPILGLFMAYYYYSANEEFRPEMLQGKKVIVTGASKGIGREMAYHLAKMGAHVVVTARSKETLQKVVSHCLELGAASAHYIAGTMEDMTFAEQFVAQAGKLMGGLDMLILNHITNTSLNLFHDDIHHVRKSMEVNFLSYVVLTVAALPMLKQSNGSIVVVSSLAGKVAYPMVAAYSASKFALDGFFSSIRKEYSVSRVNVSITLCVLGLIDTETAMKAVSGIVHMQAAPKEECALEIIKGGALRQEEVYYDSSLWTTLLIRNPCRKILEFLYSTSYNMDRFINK
Experimental: as §1, §2

[6] = target: mouse 11β-HSD1 (Mus musculus, UniProt P50172); experiment: scintillation proximity assay (SPA), microsomes of HEK-293 cells transfected with mouse 11β-HSD1; settings: for Mouse SI (selectivity index): SI = IC50(HSD2)/IC50(HSD1); for inhibition at 1 µM: read-out: Inhibitory ratio m-HSD1, at 1.0 μM, averages of three determinations
Chain of mouse 11β-HSD1 (P50172 whole entry): as the sequence (P50172 whole entry) above
Experimental: as §1, §2

| Structure (SMILES) | IC50 [1] | IC50 ([1]; read-out: Mouse (IC50) 11β-HSD2, Table 3, averages of two determinations) | decrease in 11β-HSD1 activity in liver ([2]; 4 h after treatment) | decrease in 11β-HSD1 activity in liver ([2]; 8 h after treatment) | IC50 [3] | IC50 [4] | Emax [4] | IC50 [5] | Human SI (selectivity index) ([5]; Table 1) | inhibition at 1 µM [5] | IC50 [6] | Mouse SI (selectivity index) ([6]; Table 1) | Mouse SI (selectivity index) ([6]; Table 3) | inhibition at 1 µM [6] | Human SI (selectivity index) ([5]; Table 3) |
| --- | --- | --- | --- | --- | --- | --- | --- | --- | --- | --- | --- | --- | --- | --- | --- |
| Cc1coc2c1C(=O)C(=O)c1c-2ccc2c1CCCC2(C)C [Compound 1, tanshinone IIA] | > 1000 µM | > 1000 µM | 32.9% | 48.4% | 135 ± 72.5 µM | 2 ± 0.6 µM | 104 ± 1% | 0.0353 ± 0.0154 µM | 3838 | 76.6 ± 1.3% | 0.0322 ± 0.0025 µM | > 31,250 | > 31,055.9 | 89.6 ± 0.6% | – |
| Cc1coc2c1C(=O)C(=O)c1c-2ccc2c1C=CCC2(C)C [Compound 13] | > 100 µM | – | – | – | 2.7 ± 1 µM | 7.9 µM | 102 ± 0.3% | 0.27 µM | – | 67.4 ± 1.6% | 0.0593 ± 0.0095 µM | – | > 1689.2 | 92.3 ± 2.7% | 9.9 |
| Cc1coc2c1C(=O)C(=O)c1c-2ccc2c1C=CC(=O)C2(C)C [Compound 14] | > 100 µM | – | – | – | 5.9 ± 3.4 µM | > 4 µM | 104 ± 1.2% | 0.3 µM | – | 57.2 ± 2% | 0.0539 ± 0.0093 µM | – | > 1855.3 | 85.9 ± 1.6% | 19.6 |
| Cc1coc2c1C(=O)C(=O)c1c-2ccc2c1CCC(=O)C2(C)C [Compound 17] | > 100 µM | – | – | 38.5% | 5.9 ± 2.3 µM | 1.4 ± 0.1 µM | 90 ± 0.4% | 0.21 µM | – | 63.5 ± 3.2% | 0.0069 ± 0.0007 µM | – | > 14,492.7 | 84.6 ± 1.4% | 28.0 |
| CC1(C)CCCc2c1ccc1c2C(=O)C(=O)c2c(CO)coc2-1 [Compound 30] | > 100 µM | – | – | 41.2% | – | 4.4 ± 0.1 µM | 105% | 0.0578 ± 0.013 µM | – | 82 ± 2.7% | 0.0222 ± 0.0006 µM | – | > 4510.6 | 98.6 ± 0.7% | – |

Other lines, results leading:

| IC50 [1] | IC50 ([1]; read-out: Mouse (IC50) 11β-HSD2, Table 3, averages of two determinations) | decrease in 11β-HSD1 activity in liver ([2]; 4 h after treatment) | decrease in 11β-HSD1 activity in liver ([2]; 8 h after treatment) | IC50 [3] | IC50 [4] | Emax [4] | IC50 [5] | Human SI (selectivity index) ([5]; Table 1) | inhibition at 1 µM [5] | IC50 [6] | Mouse SI (selectivity index) ([6]; Table 1) | Mouse SI (selectivity index) ([6]; Table 3) | inhibition at 1 µM [6] | Human SI (selectivity index) ([5]; Table 3) | Structure (SMILES) |
| --- | --- | --- | --- | --- | --- | --- | --- | --- | --- | --- | --- | --- | --- | --- | --- |
| > 100 µM | – | – | – | 4.1 ± 0.7 µM | 3.9 ± 0.1 µM | 104 ± 0.9% | 0.149 ± 0.0339 µM | – | 74.3 ± 2.1% | 0.0793 ± 0.0162 µM | – | > 1261.0 | 79.2 ± 2.2% | 27.5 | Cc1c(COCO)oc2c1C(=O)C(=O)c1c-2ccc2c1CCCC2(C)C [Compound 28a] |
| > 100 µM | – | – | – | 6.3 ± 0.9 µM | 3.1 ± 0.6 µM | 100 ± 4% | 0.0998 ± 0.0105 µM | – | 75.3 ± 0.8% | 0.0702 ± 0.0134 µM | – | > 1426.5 | 88.5 ± 0.1% | 62.9 | Cc1c(CO)oc2c1C(=O)C(=O)c1c-2ccc2c1CCCC2(C)C [Compound 28b] |
